Type in all cases: in vivo
Data set [1] has as its system Lolium multiflorum Lam. The data set can be described thus: Test Example 4: herbicidal effect by soil treatment (symbol K). The note with it: 320 g/ha. In a few lines: (§1)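 Seeds were sown in sterilized diluvial soil, covered with about 1.5 cm of soil, and the soil surface was sprayed with a water-diluted emulsion of the compound at a predetermined rate. Plants grew in a greenhouse at 25° C. to 30° C.; effects were scored visually 3 weeks after application.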

Data set [2] deals with Amaranthus retroflexus. Nature of the data set: Test Example 5: herbicidal effect by foliage application, plastic box (symbol N). The note with it: 320 g/ha, 3 weeks after application. Summed up: (§2)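 Sowing in sterilized diluvial soil, 14 days' greenhouse growth at 25° C. to 30° C., then uniform small-sprayer foliar application of aqueous emulsion dilution; plants scored three weeks afterwards.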

For data set [3], the system named is Avena fatua. Nature of the data set: Test Example 4: herbicidal effect by soil treatment (symbol I). To be noted: 320 g/ha. Summed up:
as §1

In data set [4] the test system is Echinochloa crus-galli var. crus-galli. The data set can be described thus: Test Example 3: herbicidal effect by foliage application, Wagner pot (symbol H). The note with it: application herbicide amount 320 g/ha. Summed up:
(§3)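 Foliar spray of water-diluted emulsion formulation at a predetermined herbicide amount onto 14-day-old plants in flooded alluvial soil (water depth 0.1–0.5 cm), greenhouse 25–30 °C; rice sown alongside. Scored 3 wk post-application on set criteria.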

Data set [5] relates to rice. The data set can be described thus: Test Example 4: effect on crop by soil treatment (symbol b). The note with it: 320 g/ha. Summed up: (§4)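 Crop seeds, among them rice, wheat, beet and rapeseed, were sown in sterilized diluvial soil and covered with about 1.5 cm of soil. Boxes were kept in a greenhouse at 25° C. to 30° C. for plant growth.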
Data set [6] has as its system Veronica persica. The data set can be described thus: Test Example 4: herbicidal effect by soil treatment (symbol R). The note with it: 320 g/ha. In a few lines: as §1
Data set [7] has as its system Echinochloa crus-galli var. crus-galli. The data set can be described thus: Test Example 5: herbicidal effect by foliage application, plastic box (symbol H). The note with it: 320 g/ha, 3 weeks after application. In a few lines:
as §2

Data set [8] deals with Chenopodium album. Nature of the data set: Test Example 5: herbicidal effect by foliage application, plastic box (symbol O). The note with it: 320 g/ha, 3 weeks after application. Summed up:
as §2

The subject of data set [9] is Stellaria media. The data set can be described thus: Test Example 5: herbicidal effect by foliage application, plastic box (symbol P). The note with it: 320 g/ha, 3 weeks after application. Summed up:
as §2

In data set [10] the test system is Stellaria media. The data set can be described thus: Test Example 4: herbicidal effect by soil treatment (symbol P). To be noted: 320 g/ha. In a few lines:
as §1

The subject of data set [11] is Alopecurus myosuroides. The data set can be described thus: Test Example 5: herbicidal effect by foliage application, plastic box (symbol J). The note with it: 320 g/ha, 3 weeks after application. Summed up:
as §2

The subject of data set [12] is Echinochloa oryzacola Vasing. Nature of the data set: Test Example 2: herbicidal activity, application during weed generation in submerged conditions (symbol A). The note with it: Table 23; application herbicide amount 320 g/ha; grade 0-5 by criteria of Test Example 1. In a few lines:
(§5)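 Paddy pot test, submerged (4 cm water), alluvial soil, mixed sowing; greenhouse 25–30° C. Emulsion formulation diluted to predetermined rate, applied onto floodwater at 1–2 leaf stage. Visual herbicidal rating at 3 wk post-treatment.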

Data set [13] deals with Alopecurus myosuroides. The data set can be described thus: Test Example 4: herbicidal effect by soil treatment (symbol J). The note with it: 320 g/ha. Summed up: as §1
For data set [14], the system named is wheat. The data set can be described thus: Test Example 4: effect on crop by soil treatment (symbol e). To be noted: 320 g/ha. Summed up:
as §4

The subject of data set [15] is rice plant. Nature of the data set: Test Example 5: effect on crop by foliage application, plastic box (symbol b). The note with it: 320 g/ha, 3 weeks after application. Summed up:
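Sterilized diluvial soil, plastic box (21 × 13 × 7 cm); spot sowing, ~1.5 cm soil cover; greenhouse 25–30° C.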

Data set [16] deals with Setaria viridis. The data set can be described thus: Test Example 4: herbicidal effect by soil treatment (symbol G). To be noted: 320 g/ha. Summed up: as §1
Data set [17] has as its system Scirpus juncoides. Nature of the data set: Test Example 2: herbicidal activity, application during weed generation in submerged conditions (symbol B). The note with it: Table 23; application herbicide amount 320 g/ha; grade 0-5 by criteria of Test Example 1. Summed up: as §5
Data set [18] concerns Leptochloa chinensis. The data set can be described thus: Test Example 3: herbicidal effect by foliage application, Wagner pot (symbol D). To be noted: application herbicide amount 320 g/ha. In a few lines: as §3
The test system of data set [19] is Monochoria vaginalis. Nature of the data set: Test Example 2: herbicidal activity, application during weed generation in submerged conditions (symbol C). To be noted: Table 23; application herbicide amount 320 g/ha; grade 0-5 by criteria of Test Example 1. In a few lines:
as §5

The test system of data set [20] is Digitaria ciliaris. Nature of the data set: Test Example 4: herbicidal effect by soil treatment (symbol F). To be noted: 320 g/ha. Summed up:
as §1

The source of these data is patent US11000033B2, “Ketone or oxime compound, and herbicide” (NISSAN CHEMICAL CORPORATION, priority 2014, dated 2021).

For `CON=C(C)CC1CC(OC(=O)c2nc(C)sc2C)=C(c2c(C)cc(C)cc2C)C1=O` (stereo not drawn) [1-101], in [1], the “K: Lolium multiflorum Lam., herbicidal effect grade” value is on record as 5 (Herbicidal ratio of 90% or more (almost completely withered)). In data set [2], the “N: Amaranthus retroflexus, herbicidal effect (criteria 0-5)” value (from here on “N: Amaranthus retroflexus”) was 5 (Herbicidal ratio of 90% or more (almost completely withered)). The “I: Avena fatua, herbicidal effect grade” value in [3] was 3 (Herbicidal ratio of 40% or higher and lower than 70%). In [4], the “herbicidal effect on H (Echinochloa crus-galli var. crus-galli), grade 0-5” value (from here on “herbicidal effect on H”) is recorded as 5 (Herbicidal ratio of 90% or more (almost completely withered)). Moreover, in [5], the “b: directly sowed rice plant, effect grade on crop” value was 5 (Herbicidal ratio of 90% or more (almost completely withered)). The “R: Veronica persica, herbicidal effect grade” value (shortened to “R: Veronica persica”) in [6] is 0 (Herbicidal ratio of 5% or lower (almost no effect)). In addition, in [7], the “H: Echinochloa crus-galli var. crus-galli, herbicidal effect (criteria 0-5)” value was 5 (Herbicidal ratio of 90% or more (almost completely withered)). Moreover, the “O: Chenopodium album, herbicidal effect (criteria 0-5)” value (shortened to “O: Chenopodium album”) in [8] is 3 (Herbicidal ratio of 40% or higher and lower than 70%). Further, the “P: Stellaria media, herbicidal effect (criteria 0-5)” value (from here on “P: Stellaria media … (criteria 0-5)”) in data set [9] was 3 (Herbicidal ratio of 40% or higher and lower than 70%). The “P: Stellaria media, herbicidal effect grade” value in [10] is 0 (Herbicidal ratio of 5% or lower (almost no effect)). Further, the “J: Alopecurus myosuroides, herbicidal effect (criteria 0-5)” value in data set [11] is 5 (Herbicidal ratio of 90% or more (almost completely withered)). Further, the “Herbicidal effect grade, A: Echinochloa oryzacola Vasing.” value in [12] is reported as 5 (Herbicidal ratio of 90% or more (almost completely withered)). Further, the “J: Alopecurus myosuroides, herbicidal effect grade” value in data set [13] is recorded as 5 (Herbicidal ratio of 90% or more (almost completely withered)). Besides, the “e: wheat, effect grade on crop” value in [14] is 3 (Herbicidal ratio of 40% or higher and lower than 70%). Further, the “b: directly sowed rice plant, effect on crop (criteria 0-5)” value in [15] is reported as 5 (Herbicidal ratio of 90% or more (almost completely withered)). Besides, the “G: Setaria viridis, herbicidal effect grade” value (from here on “G: Setaria viridis”) in data set [16] is 5 (Herbicidal ratio of 90% or more (almost completely withered)). Besides, the “Herbicidal effect grade, B: Scirpus juncoides” value (“Herbicidal effect grade, B” for short) in data set [17] is on record as 5 (Herbicidal ratio of 90% or more (almost completely withered)). Also, the “herbicidal effect on D (Leptochloa chinensis), grade 0-5” value (“herbicidal effect on D” for short) in data set [18] is recorded as 5 (Herbicidal ratio of 90% or more (almost completely withered)). Also, the “Herbicidal effect grade, C: Monochoria vaginalis” value (shortened to “Herbicidal effect grade, C”) in data set [19] is 2 (Herbicidal ratio of 20% or higher and lower than 40%). Moreover, the “F: Digitaria ciliaris, herbicidal effect grade” value (“F: Digitaria ciliaris” below) in [20] is on record as 5 (Herbicidal ratio of 90% or more (almost completely withered)).
As to `CC(CC1CC(O)=C(c2c(C)cc(C)cc2C)C1=O)=NOCC#N` (stereo not drawn) [1-102], the “K: Lolium multiflorum Lam., herbicidal effect grade” value in [1] was 5 (Herbicidal ratio of 90% or more (almost completely withered)). For the same compound, in data set [2], the “N: Amaranthus retroflexus” value was 0 (Herbicidal ratio of 5% or lower (almost no effect)). For the same compound, the “I: Avena fatua, herbicidal effect grade” value in [3] is given as 0 (Herbicidal ratio of 5% or lower (almost no effect)). The “herbicidal effect on H” value in [4] is on record as 5 (Herbicidal ratio of 90% or more (almost completely withered)). Moreover, in data set [5], the “b: directly sowed rice plant, effect grade on crop” value is on record as 5 (Herbicidal ratio of 90% or more (almost completely withered)). Moreover, the “R: Veronica persica” value in data set [6] is on record as 0 (Herbicidal ratio of 5% or lower (almost no effect)). In data set [7], the “H: Echinochloa crus-galli var. crus-galli, herbicidal effect (criteria 0-5)” value was 5 (Herbicidal ratio of 90% or more (almost completely withered)). In addition, the “O: Chenopodium album” value in data set [8] is 3 (Herbicidal ratio of 40% or higher and lower than 70%). Further, the “P: Stellaria media … (criteria 0-5)” value in [9] is recorded as 0 (Herbicidal ratio of 5% or lower (almost no effect)). In addition, the “P: Stellaria media, herbicidal effect grade” value in [10] was 0 (Herbicidal ratio of 5% or lower (almost no effect)). Also, in data set [11], the “J: Alopecurus myosuroides, herbicidal effect (criteria 0-5)” value is reported as 5 (Herbicidal ratio of 90% or more (almost completely withered)). The “Herbicidal effect grade, A: Echinochloa oryzacola Vasing.” value in data set [12] is given as 5 (Herbicidal ratio of 90% or more (almost completely withered)). The “J: Alopecurus myosuroides, herbicidal effect grade” value in data set [13] was 5 (Herbicidal ratio of 90% or more (almost completely withered)). Further, in data set [14], the “e: wheat, effect grade on crop” value was 0 (Herbicidal ratio of 5% or lower (almost no effect)). Moreover, the “b: directly sowed rice plant, effect on crop (criteria 0-5)” value in [15] is given as 5 (Herbicidal ratio of 90% or more (almost completely withered)). Moreover, the “G: Setaria viridis” value in [16] was 5 (Herbicidal ratio of 90% or more (almost completely withered)). In data set [17], the “Herbicidal effect grade, B” value is 2 (Herbicidal ratio of 20% or higher and lower than 40%). For the same compound, in [18], the “herbicidal effect on D” value is reported as 5 (Herbicidal ratio of 90% or more (almost completely withered)). For the same compound, the “Herbicidal effect grade, C” value in data set [19] is 2 (Herbicidal ratio of 20% or higher and lower than 40%). In data set [20], the “F: Digitaria ciliaris” value was 4 (Herbicidal ratio of 70% or higher and lower than 90%).
`CON=C(C)CC1CC(OC(=O)c2cnoc2C2CC2)=C(c2c(C)cc(C)cc2C)C1=O` (stereo not drawn) [1-103]: the “K: Lolium multiflorum Lam., herbicidal effect grade” value in data set [1] is on record as 5 (Herbicidal ratio of 90% or more (almost completely withered)). In addition, in data set [2], the “N: Amaranthus retroflexus” value is on record as 0 (Herbicidal ratio of 5% or lower (almost no effect)). Besides, the “I: Avena fatua, herbicidal effect grade” value in data set [3] was 3 (Herbicidal ratio of 40% or higher and lower than 70%). Further, the “herbicidal effect on H” value in data set [4] was 5 (Herbicidal ratio of 90% or more (almost completely withered)). Besides, the “b: directly sowed rice plant, effect grade on crop” value in [5] is 5 (Herbicidal ratio of 90% or more (almost completely withered)). The “R: Veronica persica” value in data set [6] is given as 0 (Herbicidal ratio of 5% or lower (almost no effect)). Further, the “H: Echinochloa crus-galli var. crus-galli, herbicidal effect (criteria 0-5)” value in [7] is on record as 5 (Herbicidal ratio of 90% or more (almost completely withered)). Further, the “O: Chenopodium album” value in data set [8] is 2 (Herbicidal ratio of 20% or higher and lower than 40%). The “P: Stellaria media … (criteria 0-5)” value in [9] is 2 (Herbicidal ratio of 20% or higher and lower than 40%). The “P: Stellaria media, herbicidal effect grade” value in [10] is on record as 0 (Herbicidal ratio of 5% or lower (almost no effect)). For the same compound, the “J: Alopecurus myosuroides, herbicidal effect (criteria 0-5)” value in data set [11] is recorded as 5 (Herbicidal ratio of 90% or more (almost completely withered)). Further, the “Herbicidal effect grade, A: Echinochloa oryzacola Vasing.” value in data set [12] is 5 (Herbicidal ratio of 90% or more (almost completely withered)). Also, the “J: Alopecurus myosuroides, herbicidal effect grade” value in [13] is on record as 5 (Herbicidal ratio of 90% or more (almost completely withered)). The “e: wheat, effect grade on crop” value in [14] was 4 (Herbicidal ratio of 70% or higher and lower than 90%). Also, the “b: directly sowed rice plant, effect on crop (criteria 0-5)” value in [15] is given as 5 (Herbicidal ratio of 90% or more (almost completely withered)). Also, in [16], the “G: Setaria viridis” value is on record as 5 (Herbicidal ratio of 90% or more (almost completely withered)). For the same compound, the “Herbicidal effect grade, B” value in data set [17] was 4 (Herbicidal ratio of 70% or higher and lower than 90%). Moreover, the “herbicidal effect on D” value in [18] was 5 (Herbicidal ratio of 90% or more (almost completely withered)). Besides, the “Herbicidal effect grade, C” value in [19] is on record as 0 (Herbicidal ratio of 5% or lower (almost no effect)). The “F: Digitaria ciliaris” value in [20] is recorded as 5 (Herbicidal ratio of 90% or more (almost completely withered)).
